One molecule from US6518271B1, “1H-imidazo[4,5-d]pyridazin-7-one, and corresponding thiones as corticotropin releasing factor (CRF) receptor ligands” (Bristol-Myers Squibb Company, priority 1998, dated 2003) can be followed below.

One may read the melting point as the temperature, or range, at which the solid turns liquid.

The molecule `CCC(C)C(CC)C1=NC2=C(c3ccc(Cl)cc3Cl)N=NC(=O)C2=N1` (stereo not shown) [Example 1, 4-(2,4-dichlorophenyl)-2-ethyl-1-(1-ethyl)propyl-imidazo[4,5-d]pyridazin-7-one] yielded a melting point of 246 to 247 °C.
